This is an account of results in patent publication US9791451B2, “Squaraine based fluorescent probe and a process for the preparation thereof” (Council of Scientific & Industrial Research, priority 2013, dated 2017).

Data set [1] in a line: Fluorescence detection of thiols (GSH) by Sq, selectivity and sensitivity. The following applies: pH 8.0. Here is the method:
Sq detects GSH quantitatively with high sensitivity (2 nM) (FIG. 3). Formula 1 prepared in 30% ACN/25 mM phosphate buffer is used for monitoring thiol variations inside cells. […] The aggregation was confirmed by temperature-dependent UV/Vis and emission spectroscopic studies in 15% acetonitrile/water mixture (FIG. 5a and FIG. 5b). The self-assembly of Sq was established further by atomic force microscopy (AFM), transition electron microscopy (TEM) and DLS analysis. […] Formula 1 prepared in 25 mM phosphate buffer solution at a pH of 4.2 labels serum albumin proteins noncovalently, which is evident from the UV-vis and emission spectroscopic studies. The broad absorption (550-850 nm) corresponding to the absorption of Sq aggregates narrowed with a turn-on fluorescence at 700 nm exc @ 640 nm) emission upon addition of BSA protein was observed (FIGS. 7a & 7b). The solution of the Sq dye in phosphate buffer has a blue color but nonemissive (FIG. 7c, top). […] The 1:6 Sq-BSA complex whose pH sensitivity lies within the physiological region and due to the ratiometric fluorescence response (FIG. 14) this system was used for monitoring minor pH fluctuations inside cells ratiometrically. […] Quantitative data for pH measurements in cells were obtained using bio-rad image data explorer software (table 2). […]

A short description of data set [2]: Stability of the dye over pH. The class given is physicochemical. An excerpt:
Even though noncovalent interaction of serum albumin proteins and covalent interaction of thiol containing small molecules with squaraine dyes are known in individual cases, achieving both type of interaction by a single probe in a reversible fashion with an external stimulus remains challenging. Therefore, the first and foremost task was identifying an appropriate switchable dye molecule, which is stable at a broad pH window with distinct emission wavelengths during the different modes of interactions and having a tunable pH responsive interaction. […] This absorption band is similar to the absorption of Sq in acetonitrile in which the molecule exists in the monomeric state. […] Sq (6 μM) in a 25 mM phosphate buffer (pH 4.2) has no emission at 700 nm due to the aggregation. Upon addition of BSA protein, a gradual enhancement in the fluorescence intensity at 700 nm was observed (FIG. 7b). This fluorescence enhancement is due to the disassembly of aggregates and the consequent noncovalent interaction between Sq and BSA protein. The solution of the Sq dye in 25 mM phosphate buffer has a blue color and at this stage the dye is non emissive (FIG. 7c, top).

Data set [3] in a line: Self-assembly morphology by AFM, TEM and DLS. The format is physicochemical. The source says: The self-assembly of Sq was established by atomic force microscopy (AFM), transition electron microscopy (TEM) and DLS analysis. […] The dynamic light scattering (DLS) measurements of a buffer solution containing.
The next data set has as its target BSA protein (Bos taurus, UniProt P02769). Description: Noncovalent (pH 4.2) and covalent (pH 8.2) labeling of serum albumin, fluorescence turn-on. The class given is binding, Bovine. Conditions: 25 mM phosphate buffer, 6 μM. The protocol:
Stock solution of Sq (1.2×10^−3 M) was prepared in acetonitrile and stock solution of BSA protein (2.4×10^−3M) was prepared in 25 mM phosphate buffer at pH 4.2. 15 μL of Sq from the stock solution is added to the 25 mM phosphate buffer at pH 4.2, to make the resulting concentration of the solution into 6×10^−6 M. To this solution different volumes ranging from 7.5-150 μL of BSA protein were added and the absorption and emission spectra were recorded each time after 20 minutes. The broad absorption (550-850 nm) corresponding to the absorption of Sq aggregates narrowed with a turn-on fluorescence at 700 nm (λexc @ 640 nm) emission was observed.
Stock solution of Sq (1.2×10^−3 M) was prepared in acetonitrile and stock solution of BSA protein (1.2×10^−3 M) was prepared in 25 mM phosphate buffer at a pH of 8.2. 15 μL of Sq from the stock solution is added to 25 mM phosphate buffer at pH 8.2, to make the resulting concentration of the solution to 6×10^−6 M. To this solution different volumes ranging from 1.5-36 μL of BSA protein were added and the absorption and emission spectra were recorded at 15 minutes interval. The broad absorption (550-850 nm) corresponding to the absorption of Sq aggregates quenched with concomitant formation of an absorption at 380 nm was observed (FIG. 8a). […]

A further data set has as its target HSA protein (Homo sapiens, UniProt P02768). The description is as above. The following applies: 25 mM phosphate buffer, 6 μM. The format is binding. An excerpt: (§1) This selectivity apparently originates from the Sq disassembly driven by the molecular recognition sites of the serum albumin proteins.
The subject of data set [4] is other thiol and nonthiol containing proteins (heamoglobin, glutathione reductase, bromelain). The experiment in a line: Selectivity against other thiol and nonthiol containing proteins. The format is binding.
Source text: as §1

Data set [5] can be described thus: Selectivity against small thiol containing molecules in self-assembled state. The following applies: 10 equivalent; Sq 6×10^−6 M; 480 nm. An excerpt: The selectivity of our nanoprobe towards serum albumin proteins from small thiol containing molecules like cysteine, homocysteine, glutathione, mercaptoethanol, dithiothreitol, cystamine and thioglycolic acid at a higher pH of 8.2, where the dye is expected to undergo thiol alkylation reaction is investigated. […] Bar diagram represents the selectivity of Sq (6×10^−6 M) for BSA and HSA protein (6×10^−6 M) from other small thiol containing molecules (FIG. 10) which clearly indicate that the probe in its self-assembled state is able to detect serum albumin protein among other thiol containing small molecules.

In data set [6] the test system is Hep-G2 cells. The experiment in a line: Detection of minor thiol fluctuations inside HepG2 cells pre-treated with NEM. The format is cell-based, Human. The following applies: NEM 3×10^−3 M to 3×10^−6 M, 15 minutes; dye 10 minutes. Here is the method: (§2) The culture medium was prepared by dissolving 13.4 g of DMEM-high glucose (Sigma, USA) in 1 L of distilled water. Sodium bicarbonate (3.7 g L^−1) was added to the medium and the pH of the medium was adjusted to 7.4. This medium was then sterilized by passing through a sterile filter assembly fitted with a 0.22 μm filter (Millipore, USA) using a vacuum pump. Later, the medium was stored in pre-sterilized Borosil polypropylene bottles, at 4° C., until further use. To the prepared culture medium an antibiotic mixture (20 μL mL^−1 of 100× concentrate, Sigma, USA) was added. Fetal bovine serum (FBS) (Sigma, USA) was also added to the medium to give a final concentration of 10% (to 900 mL medium, 100 mL of FBS was added).
Hep G2 cells (Human Hepatocellular carcinoma cell lines), which was obtained, from National Centre for Cell Science, Pune, India, were stored in cryovials at −196° C. in liquid nitrogen, in a medium containing 70% FBS, 10% dimethyl sulfoxide (DMSO) and 20% DMEM. […]
Hep-G2 cells were pre-incubated with NEM of various concentrations (3×10^−3 M to 3×10^−6 M) and kept for 15 minutes. […] The cells were then centrifuged and diluted for 2 times and then images were-taken using confocal fluorescence microscope using alexa (640 nm exc) and DAPI (380 nm exc) as filters.

In data set [7] the test system is Hep-G2 cells. The class given is cell-based. The following applies: for Fluorescence Intensity, DAPI Image: 380 nm exc; for Fluorescence Intensity, DAPI Image / Fluorescence Intensity, Alexa Image: complex 1×10^−6 M; for Fluorescence Intensity, Alexa Image: 640 nm exc. Here is the method:
as §2
Hep G2 cells (Human Hepatocellular carcinoma cell lines), which was obtained, from National Centre for Cell Science, Pune, India, were stored in cryovials at −196° C. in liquid nitrogen, in a medium containing 70% FBS, 10% dimethyl sulfoxide (DMSO) and 20% DMEM. For revival, the vials were thawed by placing them in a water-bath maintained at 37° C. for 2-3 minutes followed by centrifugation at 3000 rpm for 3 minutes. Supernatent was removed and the pellet after suspending in medium were transferred into a radiation sterilized culturing flask, T-25 cm^2 (BD Biosciences) inside the laminar flow. Subsequently, the flask was placed in a CO2 incubator for 2 h. The viable cells stick to the culture flask while the dead cells remain in the medium. Later the medium was replaced with fresh medium containing 10% FBS and incubated till a cell confluency of 70-80%. The medium was then discarded following desired confluency. Following confluency, since the Hep G2 cells are adherent in nature, they were trypsinised by using 1 mL of trypsin (0.25%)—EDTA (0.53 mM) buffer containing 0.9% sodium chloride for […]. The cells were then transferred to a centrifuge tube and centrifuged at 2000 rpm for 3 min, followed by the removal of the supernatant.
For sub culturing, fresh DMEM containing 10% FBS was added under aseptic conditions. Cells were flushed with the help of pipette (1 mL) until the cells are completely dispersed into the medium. The cells were then diluted in a sterile complete medium at 1:3 times and transferred into fresh culture flasks. Then the flasks were placed inside CO2 incubator.
The 1:6 Sq-BSA Complex whose sensitivity of pH lies within the physiological region and due to the ratiometric fluorescence response (FIG. 14) was used in this system for monitoring minor pH fluctuations inside cells ratiometrically. Hep-G2 cells were pre-incubated with phosphate buffer of different pH (6.5, 7.0, 7.5) and kept for 10 minutes. The 1:6 Sq-BSA complex (1×10^−6 M), which was prepared by mixing 5 μl of Sq (4×10^−5 M, prepared in acetonitrile) and 15 μl of BSA protein (1.2×10^−3 M, prepared in phosphate buffer 4.2) was added to each cells and kept for 10 minutes. The cells were then centrifuged and diluted for 2 times and then images has taken using confocal fluorescence microscope using alexa (640 nm exc) and DAPI (380 nm exc) as filters. With respect to the pH of the wells the fluorescence intensity from the DAPI image was enhanced and the alexa image got quenched. Quantitative data for pH measurements in cells were obtained using bio-rad image data, explorer software (table 2). The viability of the cells after incubation of Sq-BSA complex was confirmed by the bright-field transmission measurements (FIG. 15 c, bottom).

Like-named read-outs stand apart in the source and are kept apart here.

BSA protein, sequence (P02769 25-607): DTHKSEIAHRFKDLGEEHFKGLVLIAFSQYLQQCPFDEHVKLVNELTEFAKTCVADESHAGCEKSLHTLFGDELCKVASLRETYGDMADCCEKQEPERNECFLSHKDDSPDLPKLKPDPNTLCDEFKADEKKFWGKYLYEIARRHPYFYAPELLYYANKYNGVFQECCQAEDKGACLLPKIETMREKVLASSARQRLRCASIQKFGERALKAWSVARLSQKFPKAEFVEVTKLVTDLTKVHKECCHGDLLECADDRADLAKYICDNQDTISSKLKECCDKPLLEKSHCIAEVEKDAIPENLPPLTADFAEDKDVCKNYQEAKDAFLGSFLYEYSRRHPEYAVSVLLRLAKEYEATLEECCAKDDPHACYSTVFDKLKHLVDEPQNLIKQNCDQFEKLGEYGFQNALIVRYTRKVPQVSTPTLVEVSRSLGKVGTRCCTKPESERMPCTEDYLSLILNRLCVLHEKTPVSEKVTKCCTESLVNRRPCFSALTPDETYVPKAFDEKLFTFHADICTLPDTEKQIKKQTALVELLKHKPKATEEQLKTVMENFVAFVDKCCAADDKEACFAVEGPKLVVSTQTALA
HSA protein, sequence (P02768 25-609): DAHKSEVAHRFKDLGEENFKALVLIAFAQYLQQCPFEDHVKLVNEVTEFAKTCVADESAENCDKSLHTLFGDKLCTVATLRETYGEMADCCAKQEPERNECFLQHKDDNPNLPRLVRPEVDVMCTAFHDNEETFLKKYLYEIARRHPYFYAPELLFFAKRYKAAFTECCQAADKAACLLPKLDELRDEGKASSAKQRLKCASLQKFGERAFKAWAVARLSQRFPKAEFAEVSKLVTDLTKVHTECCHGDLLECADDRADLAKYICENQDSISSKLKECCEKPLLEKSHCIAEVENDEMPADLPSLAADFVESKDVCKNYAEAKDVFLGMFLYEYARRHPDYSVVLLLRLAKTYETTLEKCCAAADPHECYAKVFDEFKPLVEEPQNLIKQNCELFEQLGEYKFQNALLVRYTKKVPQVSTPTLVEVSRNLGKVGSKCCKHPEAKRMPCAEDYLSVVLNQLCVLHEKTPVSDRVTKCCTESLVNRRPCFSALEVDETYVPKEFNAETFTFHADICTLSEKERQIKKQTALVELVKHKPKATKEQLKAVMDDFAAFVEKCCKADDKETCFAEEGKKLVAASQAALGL

Turning to `CCCCN(CCCC)c1ccc(C2=C(O)C(c3ccc(/C=C/c4cc(OC)ccc4OC)n3CCOCCOCCOC)C2=O)cc1` (centres unmarked) [Sq, (E)-2-(4-(dibutylamino)phenyl)-4-(5-(2,5-dimethoxystyryl)-1-(2-(2-(2-methoxyethoxy)ethoxy)ethyl)-1H-pyrrol-2-yl)-3-hydroxycyclobut-2-enone], the “selectivity toward thiols among amino acids (fluorescence at 510 nm)” value in data set [1] (20 equivalence of 9 amino acids, 1 equivalence Cys, Hcy, GSH) is listed as “highly selective to GSH”. In addition, the “detection limit for GSH (fluorescent intensity at 510 nm)” value in data set [1] (30% ACN/25 mM phosphate buffer, λexc 380 nm) was determined as 2 nM. Further, the “pH range of stability” value in data set [2] is 2-12. Moreover, the “diameter of spherical aggregates (AFM and TEM)” value in data set [3] (6×10^−6 M in 25 mM phosphate buffer, pH 4.2) is given as 100-300 nm. In addition, in [3] (buffer solution, Sq 6 μM), the “mean diameter of aggregates (DLS)” value is 200 nm. The “fluorescence response with BSA at pH 8.2 (covalent labeling)” value on BSA protein (λexc 380 nm) was “green emission at 480 nm”. In addition, at BSA protein (λexc 640 nm), the “fluorescence response with BSA at pH 4.2 (noncovalent labeling)” value is on record as “fluorescence enhancement at 700 nm”. For the same compound, the “fluorescence response with HSA at pH 8.2 (covalent labeling)” value on HSA protein (λexc 380 nm) was “green emission at 480 nm”. Moreover, on HSA protein (λexc 640 nm), the “fluorescence response with HSA at pH 4.2 (noncovalent labeling)” value is “fluorescence enhancement at 700 nm”. In [4] (0.10 equivalence, 480 nm), the “fluorescence response with heamoglobin, glutathione reductase, bromelain at pH 8.2” value is given as “unable to produce fluorescence enhancement at 480 nm”. For the same compound, the “fluorescence response with other thiols and nonthiol containing proteins at pH 4.2” value in data set [4] (10 equivalence, 700 nm) is given as “no fluorescence enhancement in the NIR region”. Further, the “fluorescence response with thiol containing small molecules at pH 8.2” value in data set [5] was “unable to generate much fluorescent enhancement in the 480 nm region”. The “fluorescence intensity in cells versus NEM concentration” value in the data set with Hep-G2 cells [6] is recorded as “gradual quenching”.
For the compound “1:6 Sq-BSA complex: complex of squaraine dye Sq with BSA protein in ratio 1:6”, in the data set with Hep-G2 cells [7], the “viability of the cells after incubation” value is listed as “confirmed”. The “Fluorescence Intensity, DAPI Image” value was determined as 8.5 in the data set on Hep-G2 cells [7] (pH 6.5), 24.61 with Hep-G2 cells [7] (pH 7.0) and 30.18 with Hep-G2 cells [7] (pH 7.5). Moreover, the “Fluorescence Intensity, Alexa Image” value was determined as 39.84 in the data set with Hep-G2 cells [7] (pH 6.5), 21.47 in the data set on Hep-G2 cells [7] (pH 7.0) and 18.08 in the data set with Hep-G2 cells [7] (pH 7.5).
